According to patent US20100298141A1, “SUBSTITUTED PYRIDINE N-OXIDE HERBICIDES” (E. I. DU PONT DE NEMOURS AND COMPANY, priority 2007, published 2010):

What was measured:
littleseed canarygrass = experiment: Test D preemergence test; type: in vivo, Phalaris minor; settings: scale 0 to 100
Excerpt: (§1) Seeds of plant species selected from annual bluegrass (Poa annua), blackgrass (Alopecurus myosuroides), downy bromegrass (Bromus tectorum), field violet (Viola arvensis), green foxtail (Setaria viridis), Italian ryegrass (Lolium multiflorum), littleseed canarygrass (Phalaris minor), spring wheat (Triticum aestivum), wild oat (Avena fatua), […]), winter barley (Hordeum vulgare), and winter wheat (Triticum aestivum) were planted and treated preemergence with test chemicals formulated in a non-phytotoxic solvent mixture which included a surfactant. […] A dash (-) response means no test result.

wild oat = experiment: Test D preemergence test; type: in vivo, Avena fatua; settings: scale 0 to 100
Excerpt: as §1

lambsquarters = experiment: Test G preemergence test; type: in vivo, Chenopodium album; settings: scale 0 to 100
goosegrass = experiment: Test G preemergence test; type: in vivo, Eleusine indica; settings: scale 0 to 100
winter wheat = experiment: Test D preemergence test; type: in vivo, Triticum aestivum; settings: scale 0 to 100
Excerpt: as §1

windgrass = experiment: Test D preemergence test; type: in vivo, Apera spica-venti; settings: scale 0 to 100
Excerpt: as §1

tall waterhemp = experiment: Test G preemergence test; type: in vivo, Amaranthus tuberculatos; settings: scale 0 to 100
winter barley = experiment: Test D preemergence test; type: in vivo, Hordeum vulgare
Excerpt: as §1

field violet = experiment: Test D preemergence test; type: in vivo, Viola arvensis; settings: scale 0 to 100
Excerpt: as §1

corn = experiment: Test G preemergence test; type: in vivo, Zea mays; settings: scale 0 to 100
eastern black nightshade = experiment: Test G preemergence test; type: in vivo, Solanum ptycanthum; settings: scale 0 to 100
large crabgrass = experiment: Test G preemergence test; type: in vivo, Digitaria sanguinalis; settings: scale 0 to 100
millet = experiment: Test G preemergence test; type: in vivo, Panicum miliaceum; settings: scale 0 to 100
field sandbur = experiment: Test G preemergence test; type: in vivo, Cenchrus incertus; settings: scale 0 to 100
millet foxtail = experiment: Test G preemergence test; type: in vivo, Setaria italica; settings: scale 0 to 100
broadleaf signalgrass = experiment: Test G preemergence test; type: in vivo, Brachiaria platyphylla; settings: scale 0 to 100
green foxtail = experiment: Test D preemergence test; type: in vivo, Setaria viridis; settings: scale 0 to 100
Excerpt: as §1

soybean = experiment: Test G preemergence test; type: in vivo, Glycine max; settings: scale 0 to 100
giant foxtail = experiment: Test G preemergence test; type: in vivo, Setaria faberii; settings: scale 0 to 100
barnyardgrass = experiment: Test G preemergence test; type: in vivo, Echinochloa crus-galli; settings: scale 0 to 100
annual bluegrass = experiment: Test D preemergence test; type: in vivo, Poa annua; settings: scale 0 to 100
Excerpt: as §1

woolly cupgrass = experiment: Test G preemergence test; type: in vivo, Eriochloa villosa; settings: scale 0 to 100

Cc1cc[n+]([O-])c(S(=O)(=O)C(C)c2c(C(F)(F)F)nn(C)c2Cl)c1 (racemic) [Compound 14]
Plant response rating, Canarygrass (littleseed canarygrass; 31 g ai/ha): 0 | Plant response rating, Canarygrass (littleseed canarygrass; 62 g ai/ha): 0 | Plant response rating, Canarygrass (littleseed canarygrass; 125 g ai/ha): 15 | Plant response rating, Canarygrass (littleseed canarygrass; 250 g ai/ha): 20 | Plant response rating, Oat, Wild (wild oat; 31 g ai/ha): 0 | Plant response rating, Oat, Wild (wild oat; 62 g ai/ha): 0 | Plant response rating, Oat, Wild (wild oat; 125 g ai/ha): 0 | Plant response rating, Oat, Wild (wild oat; 250 g ai/ha): 20 | Plant response rating, Lambsquarters (lambsquarters; 31 g ai/ha): 0 | Plant response rating, Lambsquarters (lambsquarters; 62 g ai/ha): 0 | Plant response rating, Lambsquarters (lambsquarters; 125 g ai/ha): 0 | Plant response rating, Lambsquarters (lambsquarters; 250 g ai/ha): 40 | Plant response rating, Goosegrass (goosegrass; 31 g ai/ha): 85 | Plant response rating, Goosegrass (goosegrass; 62 g ai/ha): 95 | Plant response rating, Goosegrass (goosegrass; 125 g ai/ha): 100 | Plant response rating, Goosegrass (goosegrass; 250 g ai/ha): 100 | Plant response rating, Wheat, Winter (winter wheat; 31 g ai/ha): 0 | Plant response rating, Wheat, Winter (winter wheat; 62 g ai/ha): 0 | Plant response rating, Wheat, Winter (winter wheat; 125 g ai/ha): 20 | Plant response rating, Wheat, Winter (winter wheat; 250 g ai/ha): 35 | Plant response rating, Windgrass (windgrass; 31 g ai/ha): 0 | Plant response rating, Windgrass (windgrass; 62 g ai/ha): 75 | Plant response rating, Windgrass (windgrass; 125 g ai/ha): 100 | Plant response rating, Windgrass (windgrass; 250 g ai/ha): 100 | Plant response rating, Waterhemp (tall waterhemp; 31 g ai/ha): 0 | Plant response rating, Waterhemp (tall waterhemp; 62 g ai/ha): 0 | Plant response rating, Waterhemp (tall waterhemp; 125 g ai/ha): 0 | Plant response rating, Waterhemp (tall waterhemp; 250 g ai/ha): 40 | Plant response rating, Barley (winter barley; Preemergence, 62 g ai/ha, scale 0 to 100): 0 | Plant response rating, Barley (winter barley; Preemergence, 125 g ai/ha, scale 0 to 100): 0 | Plant response rating, Barley (winter barley; Preemergence, 31 g ai/ha, scale 0 to 100): 0 | Plant response rating, Barley (winter barley; preemergence, 250 g ai/ha, scale 0 (no effect) to 100 (complete control)): 15 | Plant response rating, Field Violet (field violet; 31 g ai/ha): 0 | Plant response rating, Field Violet (field violet; 62 g ai/ha): 0 | Plant response rating, Field Violet (field violet; 125 g ai/ha): 0 | Plant response rating, Field Violet (field violet; 250 g ai/ha): 45 | Plant response rating, Corn (corn; 31 g ai/ha): 0 | Plant response rating, Corn (corn; 62 g ai/ha): 0 | Plant response rating, Corn (corn; 125 g ai/ha): 0 | Plant response rating, Corn (corn; 250 g ai/ha): 35 | Plant response rating, Nightshade (eastern black nightshade; 31 g ai/ha): 0 | Plant response rating, Nightshade (eastern black nightshade; 62 g ai/ha): 0 | Plant response rating, Nightshade (eastern black nightshade; 125 g ai/ha): 0 | Plant response rating, Nightshade (eastern black nightshade; 250 g ai/ha): 55 | Plant response rating, Crabgrass, Large (large crabgrass; 31 g ai/ha): 0 | Plant response rating, Crabgrass, Large (large crabgrass; 62 g ai/ha): 45 | Plant response rating, Crabgrass, Large (large crabgrass; 125 g ai/ha): 100 | Plant response rating, Crabgrass, Large (large crabgrass; 250 g ai/ha): 100 | Plant response rating, Millet (millet; 31 g ai/ha): 0 | Plant response rating, Millet (millet; 62 g ai/ha): 15 | Plant response rating, Millet (millet; 125 g ai/ha): 20 | Plant response rating, Millet (millet; 250 g ai/ha): 75 | Plant response rating, Sandbur (field sandbur; 31 g ai/ha): 0 | Plant response rating, Sandbur (field sandbur; 62 g ai/ha): 20 | Plant response rating, Sandbur (field sandbur; 125 g ai/ha): 45 | Plant response rating, Sandbur (field sandbur; 250 g ai/ha): 85 | Plant response rating, Foxtail, Millet (millet foxtail; 31 g ai/ha): 0 | Plant response rating, Foxtail, Millet (millet foxtail; 62 g ai/ha): 20 | Plant response rating, Foxtail, Millet (millet foxtail; 125 g ai/ha): 70 | Plant response rating, Foxtail, Millet (millet foxtail; 250 g ai/ha): 100 | Plant response rating, Signalgrass (broadleaf signalgrass; 31 g ai/ha): 0 | Plant response rating, Signalgrass (broadleaf signalgrass; 62 g ai/ha): 15 | Plant response rating, Signalgrass (broadleaf signalgrass; 125 g ai/ha): 20 | Plant response rating, Signalgrass (broadleaf signalgrass; 250 g ai/ha): 85 | Plant response rating, Foxtail, Green (green foxtail; 31 g ai/ha): 0 | Plant response rating, Foxtail, Green (green foxtail; 62 g ai/ha): 20 | Plant response rating, Foxtail, Green (green foxtail; 125 g ai/ha): 65 | Plant response rating, Foxtail, Green (green foxtail; 250 g ai/ha): 80 | Plant response rating, Soybean (soybean; 31 g ai/ha): 0 | Plant response rating, Soybean (soybean; 62 g ai/ha): 0 | Plant response rating, Soybean (soybean; 125 g ai/ha): 0 | Plant response rating, Soybean (soybean; 250 g ai/ha): 0 | Plant response rating, Foxtail, Giant (giant foxtail; 31 g ai/ha): 0 | Plant response rating, Foxtail, Giant (giant foxtail; 62 g ai/ha): 20 | Plant response rating, Foxtail, Giant (giant foxtail; 125 g ai/ha): 100 | Plant response rating, Foxtail, Giant (giant foxtail; 250 g ai/ha): 100 | Plant response rating, Barnyardgrass (barnyardgrass; 31 g ai/ha): 0 | Plant response rating, Barnyardgrass (barnyardgrass; 62 g ai/ha): 45 | Plant response rating, Barnyardgrass (barnyardgrass; 125 g ai/ha): 70 | Plant response rating, Barnyardgrass (barnyardgrass; 250 g ai/ha): 100 | Plant response rating, Bluegrass (annual bluegrass; 31 g ai/ha): 0 | Plant response rating, Bluegrass (annual bluegrass; 62 g ai/ha): 0 | Plant response rating, Bluegrass (annual bluegrass; 125 g ai/ha): 65 | Plant response rating, Bluegrass (annual bluegrass; 250 g ai/ha): 100 | Plant response rating, Cupgrass, Woolly (woolly cupgrass; 31 g ai/ha): 0 | Plant response rating, Cupgrass, Woolly (woolly cupgrass; 62 g ai/ha): 0 | Plant response rating, Cupgrass, Woolly (woolly cupgrass; 125 g ai/ha): 70 | Plant response rating, Cupgrass, Woolly (woolly cupgrass; 250 g ai/ha): 95
